Reference: ChEMBL document CHEMBL3352383, “Trends and exceptions of physical properties on antibacterial activity for Gram-positive and Gram-negative pathogens” (J Med Chem, 2014)
In brackets after ≈: the same amount, converted by molar mass.

Columns and labels:
Escherichia coli [1] = experiment: Antibacterial activity against tolC-deficient Escherichia coli; assay type: functional; details: for MIC: Escherichia coli
Escherichia coli [2] = experiment: Antibacterial activity against wild-type Escherichia coli; assay type: functional; details: for MIC: Escherichia coli
[3] = Lipophilicity, log D of the compound; details: octanol/water
Pseudomonas aeruginosa [4] = experiment: Antibacterial activity against wild-type Pseudomonas aeruginosa; assay type: functional; details: for MIC: Pseudomonas aeruginosa
Pseudomonas aeruginosa [5] = experiment: Antibacterial activity against MeXABCDXY-deficient Pseudomonas aeruginosa; assay type: functional; details: for MIC: Pseudomonas aeruginosa
Pseudomonas aeruginosa [6] = experiment: Ratio of MIC for wild-type Pseudomonas aeruginosa to MIC for MeXABCDXY-deficient Pseudomonas aeruginosa; assay type: functional
[7] = Inhibition of Escherichia coli TrmD
[8] = Inhibition of Haemophilus influenzae TrmD
Haemophilus influenzae = experiment: Antibacterial activity against acrB-deficient Haemophilus influenzae; assay type: functional
[9] = Inhibition of Haemophilus influenzae GlmU
[10] = Inhibition of Escherichia coli GlmU
Escherichia coli [11] = experiment: Antibacterial activity against tolC-deficient Escherichia coli in presence of 2% HSA; assay type: functional; details: for MIC: Escherichia coli
Escherichia coli [12] = experiment: Ratio of MIC for wild-type Escherichia coli to MIC for tolC-deficient Escherichia coli; assay type: functional
[13] = Inhibition of Pseudomonas aeruginosa MurC
Staphylococcus aureus [14] = experiment: Antibacterial activity against wild-type Staphylococcus aureus; assay type: functional
Staphylococcus aureus [15] = experiment: Antibacterial activity against wild-type Staphylococcus aureus in presence of 2% HSA; assay type: functional
Staphylococcus aureus [16] = experiment: Ratio of MIC for wild-type Staphylococcus aureus in presence of 2% HSA to MIC for wild-type Staphylococcus aureus; assay type: functional
Escherichia coli [17] = experiment: Ratio of MIC for […] tolC-deficient Escherichia coli in presence of 2% HSA to MIC for tolC-deficient Escherichia coli in presence of 2% HSA; assay type: functional

**Q.** For `N=C(N)SCc1ccc(Cl)c(Cl)c1`, which Activity (Escherichia coli [1]) is on record?
**A.** >32 µg/mL

**Q.** And the Activity (Escherichia coli [2])?
**A.** >32 µg/mL

**Q.** What about the logD [3] of the same molecule?
**A.** 1.4

**Q.** What about the Activity (Pseudomonas aeruginosa [4]) of the same molecule?
**A.** 4 µg/mL

**Q.** And the Activity (Pseudomonas aeruginosa [5])?
**A.** 1 µg/mL

**Q.** Which results are given for `N=C(N)SCc1ccc(Cl)cc1`?
**A.** MIC (Escherichia coli [2]): > 50 µM; MIC (Pseudomonas aeruginosa [4]): 12.5 µM; MIC (Pseudomonas aeruginosa [5]): 6.25 µM; Ratio (Pseudomonas aeruginosa [6]): 2

**Q.** Which MIC (Escherichia coli [1]) does the source give for `Oc1ncnc2scc(-c3ccccc3)c12` here?
**A.** > 64 µg/mL

**Q.** And the IC50 [7]?
**A.** 17000 nM

**Q.** And the IC50 [8]?
**A.** < 5000 nM

**Q.** And the MIC (Haemophilus influenzae)?
**A.** > 64 µg/mL

**Q.** For `COc1cc(OC)c(S(=O)(=O)N2c3ccccc3CC2C)cc1NC(C)=O` (stereo not drawn), which MIC (Escherichia coli [1]) is on record?
**A.** > 64 µg/mL

**Q.** And the MIC (Haemophilus influenzae)?
**A.** > 64 µg/mL

**Q.** And the IC50 [9]?
**A.** 7.8 µM

**Q.** What about the IC50 [10] of the same molecule?
**A.** 2100 nM

**Q.** With `COc1cc(OC)c(S(=O)(=O)N2c3ccccc3Oc3ccccc32)cc1NC(=O)CCC(=O)O` as the molecule, how does the MIC (Escherichia coli [1]) read?
**A.** > 64 µg/mL

**Q.** And the MIC (Haemophilus influenzae)?
**A.** 32 µg/mL (≈ 64.2 µM)

**Q.** What about the IC50 [9] of the same molecule?
**A.** 0.023 µM

**Q.** And the IC50 [10]?
**A.** 7 nM

**Q.** With `O=C(NCc1ccc(CN2CC[C@H](O)C2)cc1)c1csc2nc[nH]c(=O)c12` as the molecule, how does the MIC (Escherichia coli [1]) read?
**A.** > 64 µg/mL

**Q.** What about the logD [3] of the same molecule?
**A.** 0.37

**Q.** And the IC50 [7]?
**A.** 290 nM

**Q.** And the IC50 [8]?
**A.** 420 nM

**Q.** And the MIC (Haemophilus influenzae)?
**A.** > 64 µg/mL

**Q.** For `Fc1ccc(COc2cccc(-c3n[nH]cc3-c3ccncc3)c2)cc1`, which Activity (Escherichia coli [1]) is on record?
**A.** <0.063 µg/mL

**Q.** What about the Activity (Escherichia coli [11]) of the same molecule?
**A.** 16 µg/mL

**Q.** And the Activity (Escherichia coli [2])?
**A.** 8 µg/mL

**Q.** What about the logD [3] of the same molecule?
**A.** 4.3

**Q.** Which Activity (Escherichia coli [1]) does the source give for `CC(C)(C)c1nc(-c2ccc3c(c2)OCCO3)c(-c2ccncc2)[nH]1` here?
**A.** 0.25 µg/mL

**Q.** What about the Activity (Escherichia coli [11]) of the same molecule?
**A.** 4 µg/mL

**Q.** And the Activity (Escherichia coli [2])?
**A.** 32 µg/mL

**Q.** And the logD [3]?
**A.** 3.22

**Q.** For `CC(C)(O)[C@H](NC(=O)c1ccc(C#CC#CC2CC2)cc1)C(=O)NO`, which Activity (Escherichia coli [1]) is on record?
**A.** <0.063 µg/mL

**Q.** What about the Activity (Escherichia coli [11]) of the same molecule?
**A.** <0.063 µg/mL

**Q.** What about the Activity (Escherichia coli [2]) of the same molecule?
**A.** <0.063 µg/mL

**Q.** What about the logD [3] of the same molecule?
**A.** 2.3

**Q.** What about the Activity (Pseudomonas aeruginosa [4]) of the same molecule?
**A.** 0.25 µg/mL

**Q.** What about the Activity (Pseudomonas aeruginosa [5]) of the same molecule?
**A.** <0.06 µg/mL

**Q.** Which results are given for `NC[C@H]1OB(O)c2ccccc21`?
**A.** MIC (Escherichia coli [1]): 12.5 µM; MIC (Escherichia coli [2]): 12.5 µM; MIC (Pseudomonas aeruginosa [4]): 6.25 µM; MIC (Pseudomonas aeruginosa [5]): 6.25 µM; Ratio (Escherichia coli [12]): 1; Ratio (Pseudomonas aeruginosa [6]): 1

**Q.** Which MIC (Escherichia coli [1]) does the source give for `CO[C@H]1CN(c2nc(-c3cnc(N4CCN[C@H](C)C4)cn3)c(C(=O)O)s2)CC[C@H]1NC(=O)c1[nH]c(C)c(Cl)c1Cl` here?
**A.** 0.39 µM

**Q.** What about the MIC (Escherichia coli [2]) of the same molecule?
**A.** > 25 µM

**Q.** What about the MIC (Pseudomonas aeruginosa [4]) of the same molecule?
**A.** 25 µM

**Q.** And the MIC (Pseudomonas aeruginosa [5])?
**A.** 3.13 µM

**Q.** What about the Ratio (Escherichia coli [12]) of the same molecule?
**A.** 64

**Q.** And the Ratio (Pseudomonas aeruginosa [6])?
**A.** 8

**Q.** Which results are given for `OCC1CCCCN1c1nc(Nc2cc(C3CC3)[nH]n2)c2cn[nH]c2n1` (stereo not drawn)?
**A.** MIC (Escherichia coli [1]): > 64 µg/mL; MIC (Escherichia coli [2]): > 64 µg/mL; logD [3]: 2.85; MIC (Pseudomonas aeruginosa [4]): > 64 µg/mL; MIC (Pseudomonas aeruginosa [5]): > 64 µg/mL; IC50 [13]: 1000 nM; IC50 [7]: 1200 nM

**Q.** Which MIC (Escherichia coli [1]) does the source give for `Cn1nc(Nc2nc(N[C@H](CO)c3ccccc3)nc3[nH]ncc23)cc1C(C)(C)C` here?
**A.** 2 µg/mL

**Q.** What about the MIC (Escherichia coli [2]) of the same molecule?
**A.** > 64 µg/mL

**Q.** What about the logD [3] of the same molecule?
**A.** 3.33

**Q.** What about the MIC (Pseudomonas aeruginosa [4]) of the same molecule?
**A.** > 64 µg/mL

**Q.** And the MIC (Pseudomonas aeruginosa [5])?
**A.** 1.5 µg/mL

**Q.** And the IC50 [13]?
**A.** 1 nM

**Q.** What about the IC50 [7] of the same molecule?
**A.** < 0.5 nM

**Q.** Which MIC (Escherichia coli [1]) does the source give for `CC[C@]1(C)C[C@@H](OC(=O)CSc2nnc(N)[nH]2)[C@]2(C)[C@H](C)CC[C@]3(CCC(=O)[C@H]32)[C@@H](C)[C@@H]1O` [AZAMULIN] here?
**A.** 4 µg/mL

**Q.** And the MIC (Escherichia coli [11])?
**A.** 8 µg/mL

**Q.** And the MIC (Escherichia coli [2])?
**A.** > 64 µg/mL

**Q.** What about the MIC (Staphylococcus aureus [14]) of the same molecule?
**A.** 2 µg/mL (≈ 4.18 µM)

**Q.** And the MIC (Staphylococcus aureus [15])?
**A.** 2 µg/mL

**Q.** And the Ratio (Staphylococcus aureus [16])?
**A.** 1

**Q.** And the Ratio (Escherichia coli [17])?
**A.** 2

**Q.** With `Cc1cc(O)c(C(=O)N[C@@H](C(=O)N[C@@H]2C(=O)N3C(C(=O)O)=C(CSc4nnnn4C)CS[C@H]23)c2ccc(O)cc2)cn1` [CEFPIRAMIDE] as the molecule, how does the MIC (Escherichia coli [1]) read?
**A.** 0.5 µg/mL

**Q.** What about the MIC (Escherichia coli [11]) of the same molecule?
**A.** 6.4 µg/mL

**Q.** And the MIC (Escherichia coli [2])?
**A.** 16 µg/mL

**Q.** What about the MIC (Staphylococcus aureus [14]) of the same molecule?
**A.** 32 µg/mL (≈ 52.2 µM)

**Q.** What about the MIC (Staphylococcus aureus [15]) of the same molecule?
**A.** > 64 µg/mL

**Q.** And the Ratio (Escherichia coli [17])?
**A.** 128

**Q.** With `CC(C)(O/N=C(\C(=O)N[C@@H]1C(=O)N2C(C(=O)[O-])=C(C[n+]3ccccc3)CS[C@H]12)c1csc(N)n1)C(=O)O` [CEFTAZIDIME] as the molecule, how does the MIC (Escherichia coli [1]) read?
**A.** 0.5 µM

**Q.** What about the MIC (Escherichia coli [2]) of the same molecule?
**A.** 0.8 µM

**Q.** And the Ratio (Escherichia coli [12])?
**A.** 1.6

**Q.** Which MIC (Escherichia coli [1]) does the source give for `C[C@@H](O)[C@H]1C(=O)N2C(C(=O)O)=C([C@H]3CCCO3)S[C@H]12` [FAROPENEM] here?
**A.** 6.25 µM

**Q.** And the MIC (Escherichia coli [2])?
**A.** 3.13 µM

**Q.** And the MIC (Pseudomonas aeruginosa [4])?
**A.** < 100 µM

**Q.** Which MIC (Escherichia coli [1]) does the source give for `CC1COc2c(N3CCN(C)CC3)c(F)cc3c(=O)c(C(=O)O)cn1c23` (stereo not drawn) [OFLOXACIN] here?
**A.** 0.08 µM

**Q.** What about the MIC (Escherichia coli [2]) of the same molecule?
**A.** 0.24 µM

**Q.** And the MIC (Pseudomonas aeruginosa [4])?
**A.** 5.2 µM

**Q.** What about the MIC (Pseudomonas aeruginosa [5]) of the same molecule?
**A.** < 0.08 µM

**Q.** And the Ratio (Escherichia coli [12])?
**A.** 3

**Q.** And the Ratio (Pseudomonas aeruginosa [6])?
**A.** 62

**Q.** What does the source list for `CCCCCC1=C/C(=C/c2[nH]c(-c3ccc[nH]3)cc2OC)N=C1C` [PRODIGIOSIN]?
**A.** MIC (Escherichia coli [1]): 1 µg/mL; MIC (Escherichia coli [11]): > 32 µg/mL; MIC (Escherichia coli [2]): 2 µg/mL; MIC (Staphylococcus aureus [14]): 2 µg/mL (≈ 6.18 µM); MIC (Staphylococcus aureus [15]): 16 µg/mL; Ratio (Staphylococcus aureus [16]): 8; Ratio (Escherichia coli [17]): 2
